Data on two compounds can be found in patent US10782292B2, “Antibiotic susceptibility testing via plasmonic imaging and tracking” (priority 2015, dated 2020).

“Also recorded” adds a separate entry of the source.

In test [1] the test system is E. coli O157:H7. Put plainly: Plasmonic imaging and tracking (PIT) of Z-movement (nanomotion) of single antibody-tethered bacterial cells. It is filed as cell-based.
For test [2], the system named is E. coli O157:H7. Put plainly: Culturing in LB medium after antibiotic treatment on the sensor chip (validation of cell death). Format: cell-based. An excerpt: […] the addition of polymyxin B, Z-movement decreases from ±5 nm to ±0.5 nm, which is close to the Brownian motion of a dead bacterium. We further validated the metabolic state by culturing and elongating the tethered cell in standard Luria Broth (LB) media before adding the antibiotic.
Referring now to FIG. […] PMB is a bactericidal antibiotic which kills Gram-negative bacteria by permeabilizing the outer membrane.^60 At high concentrations, […], PMB also depolarizes the cytoplasmic membrane, causing ion-permeable pores in the cell envelope.^30 Within a few seconds after adding the antibiotic, there was a marked decrease in the Z-movement of the bacterial cell from about ±3 to about ±1 nm. We further observed that after a few minutes, the bacterial cell Z-movement reached a baseline value of ±0.5 nm. […] The decrease in bacterial cell length has been previously correlated to cell lysis and cell death after the addition of polypeptide antibiotics.^69 We validated the correlation between the decreases in nanomotion and change of the bacterial metabolic state by replacing the antibiotic-containing PBS with LB medium (lacking PMB) on the sensor chip. […] We subsequently collected a small sample volume from the above sensor chip and subjected it to culturing overnight in LB medium.
Referring now specifically to FIG. 3D, there shown are control experiment data comparing Z-movement in PBS 102 and on injections of 2% glucose 104, 1×PBS 106, and antibiotic 108. […] After subsequently eliminating glucose in the 1×PBS medium, the amplitude of the nanomotion, measured over 1 s windows for 20 s videos, decreased back to the level prior to the injection of glucose (as shown in FIG. 3E). The positive correlation between glucose injection and Z-movement strongly supports that bacterial cell nanomotion originates from metabolic activity rather than Brownian motion.

Test [3] relates to UPEC E. coli strain CFT073. Put plainly: PIT of Z-movement (nanomotion) of UPEC cells immobilized with APTES linker. Format: cell-based. Particulars: PMB 1 mg/mL, APTES surface, 1×PBS, FIG. 12. On the procedure: We immobilized the UPEC strain on the sensor using the (3-aminopropyl)-triethoxysilane (APTES) linker, rather than using the antibody immobilization for the E. coli O157:H7 study described above. We studied the nanomotion changes as antibiotic PMB acted on bacterial cells at a bactericidal concentration of 1 mg/mL. […] These experiments indicate that the methods may be used for different bacterial strains and different antibiotics. To fully establish the present method for rapid AST in clinical settings, additional and more comprehensive tests will still be needed in the future.
An aliquot of frozen E. coli O157:H7 or E. coli CFT073 strain was thawed and used to inoculate 10 mL of LB medium. […]
All plasmonic imaging sequences were collected at 106 fps at a pixel resolution of 640×480. […] Images were recorded in either transmitted or plasmonic imaging mode for various time durations. […]
More specifically, the plasmonic image intensity was calculated by obtaining averaged intensity within a fixed area around the bacterial cell using the bare gold chip regions as reference. The Z-distance of the bacterial cell above the sensor surface was then calculated from the plasmonic image intensity (Iz) with a calibrated curve, given by Iz=I0 exp(−Δz/L), where I0 is a constant, Δz is the z displacement of a bacterial cell, and L is the decay constant. […]

Test [4] deals with UPEC strain. Put plainly: Overnight culturing in LB medium after antibiotic treatment (validation of cell death), UPEC. Format: cell-based, E. coli CFT073. Particulars: after PMB 1 mg/mL.
The subject of test [5] is E. coli O157:H7. The test can be described thus: Transmitted microscope image of bacterial cell length after adding antibiotic. Format: cell-based. On the procedure: Referring now to FIG. 3C the effect of antibiotic polymycin B at a concentration of 500 μg/mL on Z-movement of a bacterial cell is shown. […] PMB is a bactericidal antibiotic which kills Gram-negative bacteria by permeabilizing the outer membrane.^60 At high concentrations, such as […] used in this study, PMB also depolarizes the cytoplasmic membrane, causing ion-permeable pores in the cell envelope.^30 Within a few seconds after adding the antibiotic, there was a marked decrease in the Z-movement of the bacterial cell from about ±3 to about ±1 nm. We further observed that after a few minutes, the bacterial cell Z-movement reached a baseline value of ±0.5 nm. […]
Referring now specifically to FIG. 3D, there shown are control experiment data comparing Z-movement in PBS 102 and on injections of 2% glucose 104, 1×PBS 106, and antibiotic 108. […] After subsequently eliminating glucose in the 1×PBS medium, the amplitude of the nanomotion, measured over 1 s windows for 20 s videos, decreased back to the level prior to the injection of glucose (as shown in FIG. 3E). […]
All plasmonic imaging sequences were collected at 106 fps at a pixel resolution of 640×480. […] Images were recorded in either transmitted or plasmonic imaging mode for various time durations.

In test [6] the test system is Gram-negative bacteria. Particulars: literature reference 30; cited from earlier work.

As for `[H]/N=C(/N)N[C@H]1[C@H](O)[C@@H](O)[C@H](O[C@@H]2O[C@@H](C)[C@](O)(C=O)[C@H]2O[C@@H]2O[C@@H](CO)[C@H](O)[C@@H](O)[C@@H]2NC)[C@@H](N/C(N)=N\[H])[C@@H]1O` [streptomycin], in test [1] (streptomycin 1 mg/mL, PBS supplemented with LB (0.4×LB media), FIG. 13), the “Change in nanomotion (Z-movement) after streptomycin” value is “decrease in nano-motion; also recorded: decrease in the nanomotion”. For the same compound, the “Overnight culturing after streptomycin” value in test [2] (after streptomycin 1 mg/ml) is “confirmed the death of the bacteria”.
With Polymyxin B, the “Change in nanomotion (Z-movement) at sub-bactericidal concentration” value in test [1] (0.5 μg/ml (b80 prints 0.5 g/mL), after 20 min, 1×PBS, FIG. 10, listed as PMB) is recorded as “did not observe changes in the nanomotion; also recorded: does not change the Z-movement”. The “Change in nanomotion (Z-movement) at 5× bactericidal concentration” value in test [1] (100 μg/m, 1×PBS, FIG. 10, listed as PMB) was “significant decrease in nanomotion; also recorded: large decrease in Z-movement”. The “Change in nanomotion after antibiotic in glucose control experiment” value in test [1] (PMB 75 µg/mL (bactericidal concentration), FIG. 3D) is reported as “decrease in bacterial nanomotion”. For the same compound, the “Change in Z-motion of a bacterial cell after adding antibiotic” value in test [1] (added at t=120 s, FIG. 3A) is “large drop in Z-motion”. Moreover, in test [1] (after PMB 500 µg/mL, LB lacking PMB), the “Nanomotion after replacing antibiotic-containing PBS with LB medium” value is recorded as “no further change in the bacterial nanomotion”. The “Change in nanomotion (Z-movement) of UPEC cells” value in test [3] (listed as PMB) is listed as “decrease in bacterial nanomotion”; in test [3] (listed as polymycin B), “large decrease in the nano-motion”. Further, the “Bacterial growth on overnight culturing in LB medium” value in test [2] (after PMB 75 µg/mL) was “no bacterial growth”. Further, in test [2] (after polymyxin B 75 μg/ml), the “Cellular growth on subsequent incubation in LB media” value is recorded as “did not lead to cellular growth”. In addition, the “Growth of bacterial cells after overnight incubation in LB medium” value in test [2] (sample from sensor chip after PMB 500 µg/mL) is listed as “no growth of bacterial cells”. Also, the figures for the “Overnight culturing in LB medium of UPEC sample” value in test [4] (listed as PMB) and in test [4] (listed as polymycin B) were “no bacterial growth” and “confirmed the death of the bacteria”, respectively. The “Cell length in transmitted microscope image after antibiotic” value in test [5] (PMB 75 µg/mL, FIG. 11) is “visible decrease in cell length”. Also, in test [5] (high antibiotic concentration (500 g/mL study)), the “Bacterial cell length after adding antibiotic” value is recorded as “decreases in bacterial cell length”. Moreover, the “Concentration at which bactericidal activity has been observed” value in test [6] is recorded as 20 g/mL.
